# How the values were obtained:
# [1] = Dissociation constant, pKa of compound; type: physicochemical
# Plasmodium berghei [2] = experiment: In vivo antimalarial activity against Plasmodium berghei infected in SCID mouse; type: functional
# Plasmodium falciparum [3] = experiment: Antimalarial activity against Plasmodium falciparum K1; type: functional, organism-based
# [4] = Inhibition of Plasmodium vivax PI4K
# Plasmodium falciparum [5] = experiment: Antimalarial activity against Plasmodium falciparum NF54; type: functional, organism-based
# Plasmodium falciparum [6] = experiment: Antimalarial activity against chloroquine sensitive Plasmodium falciparum 3D7 incubated for 72 hrs by malaria SYBR green I nucleic acid staining dye based fluorescence assay; type: functional, organism-based; settings: 3D7, 72 h
# Plasmodium yoelii [7] = experiment: In vivo antimalarial activity against chloroquine resistant Plasmodium yoelii N-67 infected in Swiss albino mouse assessed as suppression of parasitemia at 25 mg/kg measured upto 28 days relative to control; type: functional; settings: time <= 28 day
# Plasmodium falciparum [8] = experiment: Antimalarial activity against chloroquine resistant Plasmodium falciparum K1 incubated for 72 hrs by malaria SYBR green I nucleic acid staining dye based fluorescence assay; type: functional, organism-based; settings: K1, 72 h
# [9] = Selectivity ratio of IC50 for Plasmodium falciparum B7 membrane recombinant Na+ dependent ATPase activity to IC50 for Plasmodium falciparum 3D7_2 membrane recombinant Na+ dependent ATPase activity
# [10] = Inhibition of Plasmodium flaciparum 3D7_2 membrane recombinant ATP4 expressed in Escherichia coli BL21 (DE3) cells; parameters: species or system Plasmodium falciparum
# [11] = Inhibition of Plasmodium flaciparum B7 membrane recombinant ATP4 expressed in Escherichia coli BL21 (DE3) cells; parameters: species or system Plasmodium falciparum
# Plasmodium falciparum [12] = experiment: Antimalarial activity against multidrug resistant Plasmodium falciparum MRA1239 after 48 hrs in presence of [3H] hypoxanthine; type: functional, organism-based
# Plasmodium berghei [13] = experiment: In vivo antimalarial activity against Plasmodium berghei infected in mouse administered po for 4 days by Peters 4 day test; type: functional; settings: 96 h
# Plasmodium falciparum [14] = experiment: Antimalarial activity against multidrug resistant Plasmodium falciparum MRA1240 after 48 hrs in presence of [3H] hypoxanthine; type: functional, organism-based
# [15] = Elimination half life in mouse blood at 16 mg/kg, po measured upto 28 days by LC-MS analysis; type: ADME, organism-based; settings: time < 28 day, read-out: LambdaZ (converted)
# [16] = Cmax in mouse blood at 16 mg/kg, po measured upto 28 days by LC-MS analysis; type: ADME, organism-based; parameters: time < 28 day, dose 16 mg/kg, route po
# Plasmodium falciparum [17] = experiment: Antimalarial activity against multidrug resistant Plasmodium falciparum W2 after 48 hrs in presence of [3H] hypoxanthine; type: functional, organism-based
# Plasmodium falciparum [18] = experiment: Antimalarial activity against multidrug resistant Plasmodium falciparum TM90-C2B after 48 hrs in presence of [3H] hypoxanthine; type: functional, organism-based
# [19] = Inhibition of Plasmodium vivax DHODH
# Plasmodium falciparum [20] = experiment: In vivo antimalarial activity against Plasmodium falciparum infected in SCID mouse; type: functional
# [21] = target: Voltage-gated inwardly rectifying potassium channel KCNH2 (Homo sapiens, UniProt Q12809); experiment: Inhibition of human ERG; type: toxicity
# Voltage-gated inwardly rectifying potassium channel KCNH2, sequence (Q12809 whole entry): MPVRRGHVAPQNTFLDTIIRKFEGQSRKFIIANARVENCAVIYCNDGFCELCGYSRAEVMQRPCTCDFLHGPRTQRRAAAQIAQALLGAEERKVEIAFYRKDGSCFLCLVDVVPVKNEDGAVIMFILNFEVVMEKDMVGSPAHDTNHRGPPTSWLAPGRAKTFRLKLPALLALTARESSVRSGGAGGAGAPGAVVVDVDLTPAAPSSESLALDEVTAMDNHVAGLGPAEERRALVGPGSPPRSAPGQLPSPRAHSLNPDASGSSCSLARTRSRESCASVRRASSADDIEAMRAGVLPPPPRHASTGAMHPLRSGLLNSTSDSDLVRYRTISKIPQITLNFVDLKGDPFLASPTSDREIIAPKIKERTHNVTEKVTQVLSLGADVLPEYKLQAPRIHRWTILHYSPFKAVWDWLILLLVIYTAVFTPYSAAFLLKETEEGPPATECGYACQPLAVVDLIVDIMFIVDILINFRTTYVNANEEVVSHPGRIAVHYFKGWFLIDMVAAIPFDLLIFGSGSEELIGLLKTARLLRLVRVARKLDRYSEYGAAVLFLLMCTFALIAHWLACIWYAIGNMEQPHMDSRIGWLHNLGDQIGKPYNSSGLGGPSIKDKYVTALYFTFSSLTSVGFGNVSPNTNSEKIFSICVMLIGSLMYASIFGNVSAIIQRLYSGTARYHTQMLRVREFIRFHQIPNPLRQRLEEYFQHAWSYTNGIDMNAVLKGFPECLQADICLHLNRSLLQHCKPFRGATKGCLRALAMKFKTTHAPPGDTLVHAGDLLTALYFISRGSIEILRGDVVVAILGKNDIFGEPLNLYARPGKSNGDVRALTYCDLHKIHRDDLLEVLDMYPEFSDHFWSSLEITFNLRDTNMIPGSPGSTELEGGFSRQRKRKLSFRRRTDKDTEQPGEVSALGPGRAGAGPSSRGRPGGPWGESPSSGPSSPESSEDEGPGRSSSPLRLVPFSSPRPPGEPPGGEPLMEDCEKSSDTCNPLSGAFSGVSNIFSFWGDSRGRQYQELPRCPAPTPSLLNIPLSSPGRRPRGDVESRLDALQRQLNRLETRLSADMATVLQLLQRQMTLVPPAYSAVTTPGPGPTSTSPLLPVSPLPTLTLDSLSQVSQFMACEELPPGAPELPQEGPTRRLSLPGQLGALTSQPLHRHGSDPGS
# CYP450 = CYP450 (Homo sapiens, UniProt P04798+P05177+P05181+P08684+P10632+P10635+P11509+P11712+P13584+P20813+P20815+P20853+P24462+P24903+P33260+P33261+P51589+P78329+P98187+Q02928+Q08477+Q16678+Q16696+Q5TCH4+Q6VVX0+Q7Z449+Q8TAV3+Q96SQ9+Q9HB55); experiment: Inhibition of CYP450 (unknown origin); type: ADME, protein assay
# Plasmodium falciparum [22] = experiment: Antiplasmodial activity against chloroquine resistant Plasmodium falciparum K1 incubated for 72 hrs by malaria SYBR green I nucleic acid staining dye based fluorescence assay; type: functional, organism-based; settings: K1, 72 h
# Plasmodium yoelii [23] = experiment: In vivo antimalarial activity against Plasmodium yoelii N-67 infected in Swiss mouse assessed as reduction in parasitemia level at 12.5 mg/kg, po measured on day 4 relative to control; type: functional; parameters: scale not given: the % may be the effect or the level left; settings: time 4 day
# [24] = Toxicity in Swiss mouse infected with Plasmodium yoelii N-67 assessed as survival rate at 12.5 mg/kg, po measured on day 4 relative to control; type: organism-based; settings: in vivo, time 4 day, read-out: Activity
# Plasmodium falciparum [25] = experiment: Antiplasmodial activity against chloroquine sensitive Plasmodium falciparum 3D7 incubated for 72 hrs by malaria SYBR green I nucleic acid staining dye based fluorescence assay; type: functional, organism-based; settings: 3D7, 72 h
# Plasmodium falciparum [26] = experiment: Antimalarial activity against Plasmodium falciparum 3D7 incubated for 72 hrs by SYBR-green method; type: functional, organism-based; settings: 3D7, 72 h
# [27] = Inhibition of Plasmodium falciparum DHODH expressed in Escherichia coli BL21 cells using L-dihydroorotate as substrate by DCIP staining method
# Plasmodium falciparum [28] = experiment: Antimalarial activity against multidrug resistant Plasmodium falciparum Dd2 incubated for 72 hrs by malaria SYBR green I nucleic acid staining dye based fluorescence assay; type: functional, organism-based; settings: Dd2, 72 h
# Plasmodium falciparum [29] = experiment: In vivo antimalarial activity against Plasmodium falciparum infected in NMRI mouse; type: functional
# Plasmodium falciparum [30] = experiment: Antimalarial activity against chloroquine resistant Plasmodium falciparum Dd2 incubated for 48 hrs by SYBR green I fluorescence based assay; type: functional, organism-based; settings: Dd2, 48 h
# Plasmodium falciparum [31] = experiment: Antimalarial activity against chloroquine resistant Plasmodium falciparum K1 incubated for 48 hrs by SYBR green I fluorescence based assay; type: functional, organism-based; settings: K1, 48 h
# Plasmodium falciparum [32] = experiment: Antimalarial activity against chloroquine resistant Plasmodium falciparum W2 incubated for 48 hrs by SYBR green I fluorescence based assay; type: functional, organism-based; settings: W2, 48 h
# Plasmodium falciparum [33] = experiment: Antimalarial activity against chloroquine sensitive Plasmodium falciparum NF54 incubated for 48 hrs by SYBR green I fluorescence based assay; type: functional, organism-based; settings: NF54, 48 h
# [34] = Binding affinity to Plasmodium falciparum quadruple mutant DHFR assessed as inhibition constant
# [35] = Drug elimination in human urine assessed as unchanged fraction; type: ADME; settings: read-out: Drug excretion
# Plasmodium berghei [36] = experiment: In vivo antimalarial activity against Plasmodium berghei infected in mouse model; type: functional
# Plasmodium falciparum [37] = experiment: Antimalarial activity against chloroquine-sensitive Plasmodium falciparum 3D7 by Giemsa staining method; type: functional, organism-based
structure (smiles),measurement,setting,value
Nc1ncc(-c2ccc(C(=O)N3CCNCC3)cc2)nc1-c1ccc(C(F)(F)F)cc1,pKa,[1],8.1
same,ED90,Plasmodium berghei [2],0.25 mg/kg
same,IC50,Plasmodium falciparum [3],4.7 nM
same,IC50,[4],23 nM
same,IC50,Plasmodium falciparum [5],5.4 nM
CC(C)C[C@@H](CN1CCN(C)CC1)Nc1ccnc2cc(Cl)ccc12,IC50,Plasmodium falciparum [6],8.8 nM
same,Activity,Plasmodium yoelii [7],100%
same,IC50,Plasmodium falciparum [8],13.6 nM
CCC(CC)Nc1nc(C)c(C#N)c2ccccc12,Ratio IC50,[9],6
same,IC50,[10],70 nM
same,IC50,[11],429 nM
CN(C(=S)NN=C(c1ccccn1)c1ccccn1)c1ccccc1,EC50,Plasmodium falciparum [12],6.9 nM
same,ED50,Plasmodium berghei [13],1.2 mg/kg/day
same,EC50,Plasmodium falciparum [14],9.1 nM
same,half-life,[15],48.7 h
same,Cmax,[16],1880 ng/mL
same,EC50,Plasmodium falciparum [17],6.2 nM
same,EC50,Plasmodium falciparum [18],13 nM
Cc1nc(Nc2ncc(N3CCN(C)[C@H](C)C3)c(Nc3cc(C)n(C)n3)n2)cc(C2CC2)c1F [SUTIDIAZINE],pKa,[1],8.4
same,IC50,Plasmodium falciparum [3],15 nM
same,IC50,Plasmodium falciparum [5],9 nM
Cc1cc(Nc2ccc(S(F)(F)(F)(F)F)cc2)n2nc(C(C)(F)F)nc2n1 [DSM-265],IC50,[19],48.1 nM
same,IC50,Plasmodium falciparum [3],2.6 nM
same,ED90,Plasmodium falciparum [20],3 mg/kg
same,IC50,[21],1660 nM
same,IC50,Plasmodium falciparum [5],1.8 nM
same,IC50,CYP450,> 10 µg/mL
CCC1CCN(CC(CC(C)C)Nc2ccnc3cc(Cl)ccc23)CC1 (stereo not given),IC50,Plasmodium falciparum [22],97.8 nM
same,Activity,Plasmodium yoelii [23],100%
same,survival at 96 h,[24],100%
same,IC50,Plasmodium falciparum [25],57 nM
CS(=O)(=O)c1ccc(-c2cnc(N)c(-c3ccc(C(F)(F)F)nc3)c2)cc1 [MMV-048],IC50,[4],3.4 nM
same,ED90,Plasmodium falciparum [20],0.57 mg/kg
CC1CCCN(C[C@H](C)Nc2ccnc3cc(Cl)ccc23)C1 (stereo not given in full),IC50,Plasmodium falciparum [6],14 nM
same,IC50,Plasmodium falciparum [8],21 nM
Cc1nc(Nc2ccc(S(F)(F)(F)(F)F)cc2)c2c(C)noc2n1,EC50,Plasmodium falciparum [26],17 nM
same,IC50,[27],36 nM
CCN(CC)CCCC(C)Nc1ccnc2cc(Cl)ccc12 (stereo not given) [CHLOROQUINE],EC50,Plasmodium falciparum [28],165 nM
CC1CCN(C[C@@H](CC2CCCCC2)Nc2ccnc3cc(Cl)ccc23)CC1,IC50,Plasmodium falciparum [6],938 nM
same,IC50,Plasmodium falciparum [8],7 nM
C[C@H]1Cc2c([nH]c3cc(Cl)c(F)cc23)[C@@]2(N1)C(=O)Nc1ccc(Cl)cc12 [CIPARGAMIN],pKa,[1],4.6
same,ED90,Plasmodium falciparum [29],2.7 mg/kg
C[C@H]1[C@H](Nc2ccc(F)cc2)O[C@@H]2O[C@]3(C)CC[C@H]4[C@H](C)CC[C@@H]1[C@@]24OO3,IC50,Plasmodium falciparum [30],11.1 nM
same,IC50,Plasmodium falciparum [31],0.6 nM
same,IC50,Plasmodium falciparum [32],3 nM
same,IC50,Plasmodium falciparum [33],1.3 nM
CCc1nc(N)nc(N)c1OCCCOc1ccccc1CCC(=O)O,pKa,[1],4.5
same,Ki,[34],0.54 nM
CCN(CC)CCCC(C)Nc1cc(OC)cc2cccnc12 (stereo not given) [PAMAQUINE],dose excreted,[35],< 1%
CC1(C)c2nc(-c3ccc(F)cc3)c(Nc3ccc(F)cc3)n2CCN1C(=O)CN [GANAPLACIDE],ED99,Plasmodium berghei [36],2.2 mg/kg
same,pKa,[1],7.3
same,IC50,[21],13400 nM
same,IC50,CYP450,> 6000 nM
O=[N+]([O-])c1cccc(-c2csc(Nc3nc(NNc4ccccc4)nc(NNc4ccccc4)n3)n2)c1,IC50,Plasmodium falciparum [37],11.3 µg/mL
COc1cc(NC(C)CCCN)c2ncccc2c1 (stereo not given) [PRIMAQUINE],dose excreted,[35],< 1%
FC1CCN(CCOc2ccc(C3CCC4(CC3)OOC3(OO4)C4CC5CC(C4)CC3C5)cc2)CC1 (stereo not given),pKa,[1],8.4
same,IC50,Plasmodium falciparum [3],4.2 nM
same,ED90,Plasmodium falciparum [20],11 mg/kg
same,IC50,Plasmodium falciparum [5],5.2 nM
same,IC50,CYP450,> 20000 nM

# From ChEMBL document CHEMBL5104092, “An insight into the recent development of the clinical candidates for the treatment of malaria and their target proteins” (Eur J Med Chem, 2021)
